Where “and” joins values, the source holds several entries; their conditions need not be identical. Identical values can stand only once. Like-named read-outs stand apart in the source and are kept apart here.
Target: T1, SIRT1 (Homo sapiens, UniProt Q96EB6)
T1 sequence (Q96EB6 1-747): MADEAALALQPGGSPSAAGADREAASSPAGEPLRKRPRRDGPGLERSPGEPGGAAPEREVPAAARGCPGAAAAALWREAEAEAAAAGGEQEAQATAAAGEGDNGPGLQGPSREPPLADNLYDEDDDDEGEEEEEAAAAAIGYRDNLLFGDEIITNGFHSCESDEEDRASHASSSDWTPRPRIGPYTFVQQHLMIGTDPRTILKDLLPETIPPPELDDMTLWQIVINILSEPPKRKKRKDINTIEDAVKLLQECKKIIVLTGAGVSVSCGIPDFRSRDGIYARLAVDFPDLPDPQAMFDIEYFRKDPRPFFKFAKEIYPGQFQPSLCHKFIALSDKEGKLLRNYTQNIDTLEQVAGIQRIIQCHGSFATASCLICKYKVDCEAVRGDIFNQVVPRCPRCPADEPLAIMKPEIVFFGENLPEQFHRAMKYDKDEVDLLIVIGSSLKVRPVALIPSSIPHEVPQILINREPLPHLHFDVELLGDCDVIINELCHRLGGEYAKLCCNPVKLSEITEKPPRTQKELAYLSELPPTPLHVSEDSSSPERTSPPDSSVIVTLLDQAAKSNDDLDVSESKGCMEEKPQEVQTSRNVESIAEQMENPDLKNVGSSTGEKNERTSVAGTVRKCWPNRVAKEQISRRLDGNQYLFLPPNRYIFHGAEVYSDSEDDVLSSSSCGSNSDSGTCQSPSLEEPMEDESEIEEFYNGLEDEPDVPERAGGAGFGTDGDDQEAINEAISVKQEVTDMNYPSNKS
Assay: Mass spectroscopic kinetic assay of SIRT1-catalyzed deacetylation of 20mer peptides
Format: biochemical
Procedure: Bovine glutamate dehydrogenase (GDH), α-ketoglutarate, NADH and NAD^+ were from Sigma Chemical Company. […] The nicotinamidase PNC1 was prepared as described by Denu and colleagues (Smith et al. (2009) Anal Biochem 394, 101-109). Our collection of approximately 5,000 SIRT1 activators was screened using the BioTrove mass spectrometry system, as previously described (Milne et al. (2007) Nature 450, 712-716). […] Compounds were present at 10 μM, and the assays were conducted in a pH 7.4 buffer containing 150 mM Tris, 5 mM DTT, 1% DMSO, and 0.025% BSA. To determine the interaction of STACs with SIRT1 two kinetic methods were employed. […] (2007) Nature 450, 712-716). The other, used with peptides of general structure […], used a continuous, enzyme-coupled method reported previously (Smith et al. (2009) Anal Biochem 394, 101-109), in which the SRT1 product nicotinamide is first converted into nicotinic acid and ammonia by the action of PNC1, and the ammonia then used by GDH to convert α-ketoglutarate into glutamate. This reaction occurs with oxidation of NADH to NAD^+ which is accompanied by a change in absorbance at 340 nm (Δε340=-6,200 M^-1 cm^-1). Activator titrations were plotted as relative velocity (i.e., the ratio of vx, velocity in the presence of activator X, to vo, velocity in the absence of activator) vs. [X]o, initial concentration of activator, and fit by nonlinear least-squares to the mechanism-independent expression for enzyme activation of […] the maximum relative velocity (i.e., vx/vo at infinite [X]o) and EC50 is the activator concentration at which vx/vo=(RVmax-1)/2. EC50 is a function of the kinetic mechanisms of both catalysis and activation, and the concentrations of substrates.

CCCCc1nc(NC2CCNCC2)cc(C(=O)Nc2ccccc2-c2nc3cc(COC4CCNCC4)cnc3s2)n1 [Compound 10, 2-butyl-6-(piperidin-4-ylamino)-N-(2-(6-((piperidin-4-yloxy)methyl)thiazolo[5,4-b]pyridin-2-yl)phenyl)pyrimidine-4-carboxamide]
RVmax (maximum relative velocity) (substrate TAMRA-peptide, fit to eq (1)): 6.8±0.3
EC50 (substrate TAMRA-peptide, fit to eq (1), read-out: EC50 (Kx) for activation of SIRT1-catalyzed deacetylation of TAMRA-peptide): 3900 ± 500 nM
Effect on the deacetylation of des(biotin,TAMRA)-peptide (substrate des(biotin,TAMRA)-peptide): none activate
RVmax for activation of the deacetylation of desTAMRA-peptide (substrate desTAMRA-peptide, fit to eq (1)): ~2.3
RVmax for activation of the deacetylation of desTAMRA-peptide (substrate desTAMRA-peptide, fit to eq (1), listed as 22): 2.6 ± 0.1
EC50 (substrate desTAMRA-peptide, fit to eq (1), read-out: EC50 for activation of the deacetylation of desTAMRA-peptide): ~2000 nM and 1700 nM
Ki,app for inhibition of the deacetylation of p53-20 mer (substrate p53-20 mer, RV=1/(1+([X]o/Ki,app))): inhibit
Ki (substrate p53-20 mer, RV=1/(1+([X]o/Ki,app)), read-out: Ki,app for inhibition of the deacetylation of p53-20 mer): 9 µM
